Reference: US20240252508A1, “Novel glucose uptake inhibitors for use in the treatment of cancer” (NOVELYEAST BV, priority 2021, published 2024)

Experiments:
tps1Δ cells = assay: Growth rescue of tps1Δ strain on glucose (growth curves, 2% galactose medium); format: cell-based, S. cerevisiae; details: 100 μM compound, 2.5 mM glucose
Summary of the method: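 tps1Δ yeast pregrown in Complete Synthetic medium with 2% galactose, washed, resuspended to OD 0.1; compounds added 10 min before glucose. Growth followed as OD595 every 30 min at 30 °C in at least three technical replicates.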

[1] = system: A549 lung adenocarcinoma cells; assay: A549 cell proliferation / growth inhibition; format: cell-based, human; details: for Selected from primary screen for growth inhibition of A549 cells at 50 μM: 50 μM compound, 1 mM glucose; for Selected for having an IC50 ratio (10 mM glucose: 1 mM glucose) of A549 growth higher than WBC-A: IC50 on 10 mM vs 1 mM glucose, compared with WBC-A
Summary of the method: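 A549 growth screened in RPMI with 1 mM glucose, compounds at 50 μM; cell number from counts of Hoechst-stained nuclei after 3 days. Growth curves also followed by IncuCyte phase-contrast confluency over 3–5 days (1000–1500 cells/well), DMSO ≤0.1%, ≥4 technical repeats.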

Row | SMILES | Rescue of the tps1Δ strain on 2.5 mM glucose at 100 μM (tps1Δ cells) | Selected from primary screen for growth inhibition of A549 cells at 50 μM [1] | Selected for having an IC50 ratio (10 mM glucose: 1 mM glucose) of A549 growth higher than WBC-A [1]
1 | Cc1nc(NC2CCN(CC(N)=O)CC2)c2c(-c3cccs3)csc2n1 [48B] | No | Yes | Lower IC50 ratio
2 | Cc1nc(NCC(=O)Nc2c(C)cccc2C)c2c(-c3cccs3)csc2n1 [29C] | No | No | 
3 | Cc1sc2nc(-c3cccs3)nc(Sc3nnc(C)n3C)c2c1C [16A] | No | No | 
4 | CC(=O)NCc1ccc(C(=O)CSc2nc(C)nc3scc(-c4cccs4)c23)o1 [29B] | Yes | No | 
5 | Cc1nc(SCC(=O)c2ccc(NC(=O)CC(C)C)cc2)c2c(-c3cccs3)csc2n1 [38B] | No | No | 
6 | Cc1nc(SCCN2CCOC2=O)c2c(-c3cccs3)csc2n1 [26C] | Yes | No | 
7 | CC1CCc2c(sc3ncnc(Sc4nnc5n4CCCCC5)c23)C1 (stereo not drawn) [31A] | No | No | 
8 | Cc1ccc(-c2csc3ncnc(SCC(=O)NCc4ccco4)c23)cc1 [8B] | No | Yes | Lower IC50 ratio
9 | Cc1nc(SCC(=O)c2c(N)n(C)c(=O)n(C)c2=O)c2c(-c3cccs3)csc2n1 [1B] | No | No | 
10 | Cc1nc(SCC(=O)NC(=O)NCc2ccco2)c2cc(-c3ccccc3)sc2n1 [40B] | No | Yes | Lower IC50 ratio
11 | Cc1ccc(-c2csc3ncnc(SCCN4CCOCC4)c23)cc1 [9C] | No | Yes | Lower IC50 ratio
12 | c1csc(-c2csc3nc(CN4CCOCC4)nc(Sc4nnc[nH]4)c23)c1 [55A] | Yes | No | 
13 | CSc1nc(SCCO)c2c3c(sc2n1)COC(C)(C)C3 [81C] | No | Yes | Lower IC50 ratio
14 | CCn1c(Sc2nc(C)nc3scc(-c4cccs4)c23)n[nH]c1=O [51A] | No | Yes | Lower IC50 ratio
15 | CCN(C(=O)CSc1nc(C)nc2scc(-c3cccs3)c12)C1CCS(=O)(=O)C1 (stereo not drawn) [2C] | Yes | Yes | Lower IC50 ratio
16 | Cc1nc(SC(C)C(=O)NC(C)C)c2c(-c3cccs3)csc2n1 (stereo not drawn) [33B] | No | Yes | Lower IC50 ratio
17 | Cc1nc(SCC(=O)NC(N)=O)c2c(-c3cccs3)csc2n1 [6B] | Yes | Yes | Lower IC50 ratio
18 | COC(=O)CSc1nc(C)nc2sc3c(c12)CCC3 [14C] | No | No | 
